From patent publication US20100087407A1, “USE OF AROMATASE INHIBITORS” (priority 2006, published 2010)

Legend:
[1] = postmenopausal breast cancer; cited from earlier work
endometrium [2] = test: Examples 1-3: endometrial thinning with loading dose and maintenance dose; assay type: in vivo, women; settings: loading dose on first day, then maintenance dose for 3-6 days, any time of cycle
Experimental: Five different groups of pre-menopausal women are treated based on where there are in the menstrual cycle. Starting days (i.e., the first day of dosing) for the five groups are on Cycle Days 2-5, 6-9, 10-13, 14-17, and 18-21 for Groups 1-5, respectively.
A thin endometrium is defined as having a double-wall thickness not greater than 4 mm on transvaginal ultrasound. […] The following table summarizes the dose day and evaluation times.

endometrium [3] = settings: small randomized study of progestogens; cited from earlier work
endometrium [4] = settings: prior to hysteroscopic surgery; cited from earlier work

## CCC1(c2ccc(N)cc2)CCC(=O)NC1=O (stereo not drawn) [aminoglutethimide]
[1]
  patients stopping treatment because of side effects (lethargy, rashes, nausea, fever): 8-15%

## CC(C)(C#N)c1cc(Cn2cncn2)cc(C(C)(C)C#N)c1 [anastrozole]
Endometrium [2]
  endometrial thinning prior to ablation: able to maintain a thin endometrium or to induce adequate thinning

## CC(=O)O[C@]1(C(C)=O)CC[C@H]2[C@@H]3C=C(Cl)C4=CC(=O)[C@@H]5C[C@@H]5[C@]4(C)[C@H]3CC[C@@]21C [cyproterone acetate]
Endometrium [3]
  effect on endometrial thickness: significant reduction

## C#C[C@]1(O)CC[C@H]2[C@@H]3CCC4=Cc5oncc5C[C@]4(C)[C@H]3CC[C@@]21C [danazol]
Endometrium [4]
  endometrial thinning: satisfactory results

## CC(=O)O[C@]1(C(C)=O)CC[C@H]2[C@@H]3C[C@H](C)C4=CC(=O)CC[C@]4(C)[C@H]3CC[C@@]21C [medroxyprogesterone acetate]
Endometrium [3]
  effect on endometrial thickness: no effect

## C#C[C@]1(O)CC[C@H]2[C@@H]3CCC4=CC(=O)CC[C@@H]4[C@H]3CC[C@@]21C [norethisterone]
Endometrium [3]
  effect on endometrial thickness: no effect
